In paper PMC8253220, “Molecular design, synthesis and in vitro biological evaluation of thienopyrimidine–hydroxamic acids as chimeric kinase HDAC inhibitors: a challenging approach to combat cancer” (Journal of Enzyme Inhibition and Medicinal Chemistry, 2021):
Where “and” joins values, the source holds several entries; their conditions need not be identical. Identical values can stand only once.

How the values were obtained:
Assay in all cases: NCI one-dose screen
Assay type in all cases: cell-based, human
SR = conditions: Leukemia SR, 10 µM single dose
How it was run: (§1)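 At 10 μM, a single concentration, compounds were evaluated for antiproliferative effect in the NCI 60-line screen, with growth expressed relative to untreated control cells.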

UO-31 = conditions: for Growth Percent: Renal UO-31, 10 µM single dose
How it was run: as §1

SNB-19 = conditions: CNS SNB-19, 10 µM single dose
How it was run: as §1

SN12C = conditions: Renal SN12C, 10 µM single dose
How it was run: as §1

HOP-62 = conditions: NSCLC HOP-62, 10 µM single dose
How it was run: as §1

CCRF-CEM = conditions: Leukemia CCRF-CEM, 10 µM single dose
How it was run: as §1

SF-539 = conditions: CNS SF-539, 10 µM single dose
How it was run: (§2)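 Single 10 μM dose, NCI-60 panel; read-out = % growth vs untreated controls → % inhibition.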

TK-10 = conditions: Renal TK-10, 10 µM single dose
How it was run: as §1

OVCAR-4 = conditions: Ovarian OVCAR-4, 10 µM single dose
How it was run: as §1

COLO 205 = conditions: Colon COLO 205, 10 µM single dose
How it was run: as §1

RPMI-8226 = conditions: Leukemia RPMI-8226, 10 µM single dose
How it was run: as §1

DU-145 = conditions: Prostate DU-145, 10 µM single dose
How it was run: as §1

M14 = conditions: Melanoma M14, 10 µM single dose
How it was run: as §1

NCI-H522 = conditions: NSCLC NCI-H522, 10 µM single dose
How it was run: as §1

SK-MEL-2 = conditions: Melanoma SK-MEL-2, 10 µM single dose
How it was run: as §1

786-0 = conditions: Renal 786-0, 10 µM single dose
How it was run: as §1

SF-268 = conditions: CNS SF-268, 10 µM single dose
How it was run: as §2

SK-OV-3 = conditions: Ovarian SK-OV-3, 10 µM single dose
How it was run: as §1

EKVX = conditions: NSCLC EKVX, 10 µM single dose
How it was run: as §1

CAKI-1 = conditions: Renal CAKI-1, 10 µM single dose
How it was run: as §1

HCT-116 = conditions: Colon HCT-116, 10 µM single dose
How it was run: as §1

A549/ATCC = conditions: NSCLC A549/ATCC, 10 µM single dose
How it was run: as §1

MALME-3M = conditions: Melanoma MALME-3M, 10 µM single dose
How it was run: as §1

SNB-75 = conditions: CNS SNB-75, 10 µM single dose
How it was run: as §1

HS 578T = conditions: Breast HS 578T, 10 µM single dose
How it was run: as §1

NCI-H226 = conditions: for Growth Percent: NSCLC NCI-H226, 10 µM single dose
How it was run: as §1

IGROV1 = conditions: Ovarian IGROV1, 10 µM single dose
How it was run: as §1

HL-60(TB) = conditions: Leukemia HL-60(TB), 10 µM single dose
How it was run: as §1

SW-620 = conditions: Colon SW-620, 10 µM single dose
How it was run: as §2

OVCAR-5 = conditions: Ovarian OVCAR-5, 10 µM single dose
How it was run: as §1

RXF 393 = conditions: Renal RXF 393, 10 µM single dose
How it was run: as §1

LOX IMVI = conditions: Melanoma LOX IMVI, 10 µM single dose
How it was run: as §1

NCI-H322M = conditions: NSCLC NCI-H322M, 10 µM single dose
How it was run: as §1

HCC-2998 = conditions: Colon HCC-2998, 10 µM single dose
How it was run: as §1

SK-MEL-5 = conditions: Melanoma SK-MEL-5, 10 µM single dose
How it was run: as §1

HT29 = conditions: Colon HT29, 10 µM single dose
How it was run: as §1

MDA-MB-435 = conditions: Melanoma MDA-MB-435, 10 µM single dose
How it was run: as §1

Structure (SMILES)	Growth Percent (SR)	Growth Percent (UO-31)	Growth Percent (SNB-19)	Growth Percent (SN12C)	Growth Percent (HOP-62)	Growth Percent (CCRF-CEM)	Growth Percent (SF-539)	Growth Percent (TK-10)	Growth Percent (OVCAR-4)	Growth Percent (COLO 205)	Growth Percent (RPMI-8226)	Growth Percent (DU-145)	Growth Percent (M14)	Growth Percent (NCI-H522)	Growth Percent (SK-MEL-2)	Growth Percent (786-0)	Growth Percent (SF-268)	Growth Percent (SK-OV-3)	Growth Percent (EKVX)	Growth Percent (CAKI-1)	other results
Cc1c(C(=O)NCCCC(=O)NO)sc2ncnc(Nc3ccc(Cl)cc3)c12 [Compound 20c, 4–(4-chlorophenylamino)-N-(4-(hydroxyamino)-4-oxobutyl)-5-methylthieno[2,3-d]pyrimidine-6-carboxamide]	102.6% and 102.62%	81.5% and 81.51%	99.1% and 99.11%	100.0% and 100.04%	102.5% and 102.52%	108.0% and 108.09%	95.3% and 95.36%	152.2% and 152.23%	109.4%	117.8% and 117.81%	103.6% and 103.64%	116.8% and 116.86%	107.6% and 107.62%	91.2% and 91.22%	106.2% and 106.25%	83.0% and 83.06%	97.2% and 97.29%	112.9% and 112.92%	90.5% and 90.52%	93.0% and 93.08%	Growth Percent (HCT-116): 108.2% and 108.21%; Growth Percent (A549/ATCC): 104.4% and 104.46%; Growth Percent (MALME-3M): 112.5% and 112.53%; Growth Percent (SNB-75): 79.1% and 79.17%; Growth Percent (HS 578T): 99.4% and 99.45%; Growth Percent (NCI-H226): 92.0% and 92.02%; Growth Percent (IGROV1): 81.1% and 81.14%; Growth Percent (HL-60(TB)): 103.4% and 103.41%; Growth Percent (SW-620): 102.3% and 102.37%; Growth Percent (OVCAR-5): 109.8% and 109.86%; Growth Percent (RXF 393): 109.5% and 109.55%; Growth Percent (LOX IMVI): 99.2% and 99.24%; Growth Percent (NCI-H322M): 101.3% and 101.35%; Growth Percent (HCC-2998): 102.4% and 102.48%; Growth Percent (SK-MEL-5): 100.0%; Growth Percent (HT29): 108.2% and 108.21%; Growth Percent (MDA-MB-435): 103.8% and 103.83%
Cc1c(C(=O)NCCCC(=O)NO)sc2ncnc(Nc3ccc(F)c(Cl)c3)c12 [Compound 20d, 4–(3-chloro-4-fluorophenylamino)-N-(4-(hydroxyamino)-4-oxobutyl)-5-methylthieno[2,3-d]pyrimidine-6-carboxamide]	110.0% and 110.02%	76.3% and 76.32%	98.1% and 98.16%	103.5% and 103.55%	105.6% and 105.66%	107.9% and 107.95%	100.8% and 100.82%	124.1% and 124.14%	104.8% and 104.88%	119.1% and 119.14%	108.7% and 108.75%	109.9% and 109.99%	102.6%	92.6% and 92.67%	113.2% and 113.22%	104.6% and 104.67%	95.2%	122.6% and 122.66%	94.4% and 94.41%	92.1% and 92.19%	inhibition at 10 µM (UO-31; Homo sapiens, renal UO-31, 10 μM): 23.7%; Growth Percent (HCT-116): 105.9% and 105.97%; Growth Percent (A549/ATCC): 94.0% and 94.08%; Growth Percent (MALME-3M): 115.8% and 115.88%; Growth Percent (SNB-75): 90.4% and 90.45%; Growth Percent (HS 578T): 99.9% and 99.99%; inhibition at 10 µM (NCI-H226; Homo sapiens, NSCLC NCI-H226, 10 μM): 11.3%; Growth Percent (NCI-H226): 88.7% and 88.71%; Growth Percent (IGROV1): 98.9% and 98.94%; Growth Percent (HL-60(TB)): 104.6% and 104.62%; Growth Percent (SW-620): 103.1% and 103.17%; Growth Percent (OVCAR-5): 100.1% and 100.15%; Growth Percent (RXF 393): 102.5% and 102.57%; Growth Percent (LOX IMVI): 96.3%; Growth Percent (NCI-H322M): 105.2% and 105.25%; Growth Percent (HCC-2998): 104.1% and 104.19%; Growth Percent (SK-MEL-5): 100.4% and 100.45%; Growth Percent (HT29): 107.1% and 107.13%; Growth Percent (MDA-MB-435): 101.6% and 101.67%
